From patent publication US20240207308A1, “METHOD FOR CULTURING DENDRITIC CELLS” (NANOFAENTECH CO., LTD., priority 2021, published 2024)

How the values were obtained:
Assay type in all cases: cell-based, mouse
spleen dendritic cells [1] = test: Viability of spleen dendritic cells by 7-AAD staining; details: 6 hours of culture
Experimental: Dendritic cells are characterized by rapid cell death during culture while self-activation occurs. In addition to the inhibition of self-activation, it was measured whether the viability of dendritic cells is changed. Cell viability was determined by staining of culturing cells with 7-AAD and measuring the number of cells not stained with the above fluorescent substance.

[2] = tested on: bone marrow-derived dendritic cells; test: ELISA of TNF-α and IL-12p40 from LPS-stimulated bone marrow-derived dendritic cells; details: BMDC, 24 hours, LPS 1 μg/mL
Experimental: Mouse bone marrow-derived dendritic cells were obtained by differentiation from mouse bone marrow precursor cells. The femur and tibia of female C57BL/6 mouse were removed, and bone marrow was isolated using 10 mL of EDTA:BSS (Balanced Salt Solution) buffer containing 2% FBS. Red blood cells were removed with erythrocyte lysis buffer (Sigma-Aldrich), washed with EDTA:BSS buffer, followed by filtering cells using a 70 μm cell strainer (Falcon). Cells at 3×10^6/mL were dispensed in a 6-well plate, and interleukin-4 (20 ng/ml) (JW Creagene, Korea) and GM-CSF (20 ng/ml) (JW Creagene) were added and cultured for 7 days to induce differentiation. Differentiated dendritic cells were reacted with microbeads bound with CD11c antibody (eBioscience), was separated using CD11c Microbeads Ultrapure (MACS, Milteni Biotec), and then cultured.
In FIG. 19, when fibronectin was administered by concentration while culturing bone marrow-derived dendritic cells for 24 hours, it could be seen that the secretion of TNF-α and IL-12p40 by LPS (1 μg/mL) was inhibited from a concentration of 100 μg/mL. * indicates statistical significance as P<0.05 or less compared to 0 μg/mL concentration.

[3] = tested on: spleen dendritic cells and T cells; test: ELISA of cytokines after 4 days co-culture of spleen dendritic cells and allogeneic T cells; details: dendritic cells activated with LPS and poly (I:C), co-culture 4 days
Experimental: Since the main role of activated dendritic cells is to induce antigen-specific T-cell activation and proliferation according to the stimulatory properties, it was investigated whether self-activated dendrite cells after culturing and dendritic cells activated with LPS after culturing with addition of peptides can induce T cell proliferation by mixed lymphocyte reaction (MLR) test. The spleen dendritic cells isolated from C57B/L6 mice were self-activated for 24 hours, otherwise, when cultured with addition of peptides or fibronectin, the cells were treated with LPS and activated. Spleen T cells from Balb/c mice were isolated using a CD4^+/CD8^+ T cell isolation kit (Miltenyi Biotec, Bergisch-Gladbach, Germany) and MACS column (Miltenyi Biotec), followed by 10 μM CFSE staining (Molecular Probes; Thermo Fisher Scientific Inc., USA). The activated dendritic cells and CFSE-stained T cells were co-cultured at a ratio of 1:20 for 4 days, and the T cell proliferation level was measured as a percentage of cells with decreased CFSE. […] In FIG. 22, the amount of cytokines secreted after co-culture of spleen dendritic cells and T cells for 4 days was measured by ELISA method. […]

spleen dendritic cells [4] = test: Flow cytometry of CD86, MHC-II, CD80, CD40 on cultured spleen dendritic cells (self-activation)
Experimental: Mouse spleen dendritic cells were obtained by adding EDTA-BSS (Balanced Salt Solution) buffer and collagenase solution (DMEM containing 100 units of collagenase type IV, medium containing low glucose) to spleens of female C57BL/6 mice and cutting it with surgical scissors, mixing the same with 6 mL of collagenase treatment solution, and incubating the mixture for 30 minutes. The separated whole spleen tissue was filtered using a 70 μm cell strainer (Falcon), followed by centrifugation at 1800 rpm for 5 minutes thus to separate the cells. Red blood cells were removed by adding red blood cell lysis buffer (Sigma-Aldrich) to the cells and washed twice with RPMI-1640 medium containing 10% fetal bovine serum (FBS). Dendritic cells were reacted with CD11c^+ antibody-bound microbeads and isolated using CD11c Microbeads Ultrapure (MACS, Milteni Biotec, USA).
In FIG. 2, in order to determine whether self-activation occurs when primary dendritic cells isolated from the spleen are cultured, dendritic cells were dispensed in a 24-well plate at 2×10^5/mL, and after culturing for 6 hours in RPMI-1640 medium at 37° C. under 5% CO2 condition, the expression levels of MHC-II, CD86, CD80 and CD40 were analyzed on the surface of dendritic cells using a flow cytometer (MACSQuant VYB flow cytometer, Miltenyi Biotec). Results measured using a flow cytometer were analyzed using FlowJo v10 (Tree Star, Ashland). The expression levels of CD86, CD80 and CD40 were shown as the percentage of cells stained with CD11c, and the expression level of MHC-II was shown as mean fluorescence intensity (MFI), which is the mean fluorescence intensity of fluorescence.
In FIG. 7, when culturing spleen dendritic cells, each of the prepared peptides was added at a concentration of 200 μg/mL and the expression level of CD86 was measured 6 hours after culture. When each peptide was used alone for treatment, the expression of CD86 was not inhibited in spleen dendritic cells. […] Compared to when the cells were treated with these three kinds of peptides, the expression was not inhibited even when the two kinds of peptides were used together for treatment. * indicates statistical significance as P<0.05 or less compared to the P1, P1-2, and P2-1 conditions.
In FIG. 9, peptides containing P1 and P2 and amino acids of these peptides as well as P3 peptide in a combination of three types were added to the spleen dendritic cell culture medium, and after culturing for 6 hours, the expression level of CD86 was measured by flow cytometry.
In FIG. 24, different concentrations of LP1, LP2 and LP3 were added to reach a concentration of 800 μg/mL, and spleen dendritic cells (2×10^5/mL) were cultured for 6 hours or 24 hours, and the CD86 expression level was measured by flow cytometry (MACSQuant VYB flow cytometer, Miltenyi Biotec). The measured results were analyzed using FlowJo v10 (Tree Star, Ashland).
In FIG. 25, when spleen primary dendritic cells were dispensed at 2×10^5/mL and cultured for 24 hours while scrambled peptides of S-LP1, S-LP2 and S-LP3 were each added at a concentration of 800 μg/mL, the increase in the expression of CD86 was not inhibited. Further, the expression of CD86 was not reduced even when the scrambled peptides S-P1, S-P2 and S-P3 were simultaneously treated at a concentration of 600 μg/mL, respectively.

fibronectin
number of 7-AAD-negative surviving cells (spleen dendritic cells [1]): significantly increased | concentration from which the secretion of TNF-α and IL-12p40 by LPS was inhibited [2]: ≥ 100 µg/mL | secretion of IFN-γ, IL-6, TNF-α and IL-5 [3]: extremely low | expression level of CD86 or MHC-II (self-activation) (spleen dendritic cells [4]; 200 μg/mL (laminin 200 μg/mL or higher), cultured 6 hours): self-activation did not occur | expression of CD86 and MHC-II as well as CD80 and CD40 (spleen dendritic cells [4]; 200 μg/mL, cultured 6 hours): not increased | concentration most effective for self-activation of spleen dendritic cells (spleen dendritic cells [4]; cultured 6 hours): 200 µg/mL | expression of MHC-II, CD80 and CD40 in addition to CD86 (spleen dendritic cells [4]; cultured 6 hours or 24 hours, peptides 200 μg/mL each): significantly inhibited
